Experimental findings from paper PMC12214007, “CARF-dependent preferential RNA cleavage by Csm6 increases drug susceptibility of mycobacteria” (Nucleic Acids Research, 2025) are described below.

The structures appear in SMILES notation.

This experiment has as its target Csm6 (Mtb Csm6) (Mycobacterium tuberculosis, UniProt P71635).

Csm6 (Mtb Csm6), sequence (P71635 34-415): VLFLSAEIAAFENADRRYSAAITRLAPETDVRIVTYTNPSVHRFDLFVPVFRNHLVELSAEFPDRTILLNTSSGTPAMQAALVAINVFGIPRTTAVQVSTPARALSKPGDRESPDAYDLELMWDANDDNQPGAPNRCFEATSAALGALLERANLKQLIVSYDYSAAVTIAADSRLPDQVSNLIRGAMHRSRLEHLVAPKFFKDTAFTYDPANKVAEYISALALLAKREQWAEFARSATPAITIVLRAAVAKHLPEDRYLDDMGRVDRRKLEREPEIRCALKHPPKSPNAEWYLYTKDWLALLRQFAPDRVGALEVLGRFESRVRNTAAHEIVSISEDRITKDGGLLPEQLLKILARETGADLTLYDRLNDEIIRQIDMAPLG

As to `Nc1ncnc2c1ncn2[C@@H]1O[C@@H]2COP(=O)(O)O[C@H]3[C@@H](O)[C@H](n4cnc5c(N)ncnc54)O[C@@H]3COP(=O)(O)O[C@H]3[C@@H](O)[C@H](n4cnc5c(N)ncnc54)O[C@@H]3COP(=O)(O)O[C@H]3[C@@H](O)[C@H](n4cnc5c(N)ncnc54)O[C@@H]3COP(=O)(O)O[C@H]3[C@@H](O)[C@H](n4cnc5c(N)ncnc54)O[C@@H]3COP(=O)(O)O[C@H]3[C@@H](O)[C@H](n4cnc5c(N)ncnc54)O[C@@H]3COP(=O)(O)O[C@H]2[C@H]1O` [cA6, cyclic hexa-adenylate], the “gel-based cleavage assay of Cy5-labelled 24 nt ssRNA” value was “the presence of cA6 significantly enhances the nuclease activity of Csm6”.
